Read-outs that look alike come from different tables or passages of the source.
Columns and labels:
[1] = target: T1, bovine inositol monophosphatase (bovine enzyme, source not specified) (Bos taurus, UniProt P20456); assay: Inhibition of bovine inositol monophosphatase (parallel comparison); format: biochemical; details: parallel experiment
T1 sequence (P20456 1-277): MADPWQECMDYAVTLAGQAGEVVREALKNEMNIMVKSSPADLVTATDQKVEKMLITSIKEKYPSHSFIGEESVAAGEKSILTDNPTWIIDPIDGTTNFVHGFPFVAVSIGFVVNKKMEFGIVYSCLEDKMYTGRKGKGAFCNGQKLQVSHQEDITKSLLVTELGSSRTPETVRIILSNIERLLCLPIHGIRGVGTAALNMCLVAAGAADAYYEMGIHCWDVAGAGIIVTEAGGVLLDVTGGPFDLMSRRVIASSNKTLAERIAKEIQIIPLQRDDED
Description: (§1) All comparisons are from data obtained in parallel experiments carried out in this study.
One unit of enzyme activity represents 1 μmol of substrate hydrolysed/min, at 37° C. […] Kinetic analyses were performed as described previously [Gee et al., supra].

[2] = target: T2, recombinant human brain inositol monophosphatase (IMP), SEQ. ID NO. 2, expressed in E. coli BL21-DE3 (Homo sapiens, UniProt P29218); assay: Kinetics and inhibition of recombinant human inositol monophosphatase ([14C]inositol release from DL-Ins(1)P)
T2 sequence (P29218 1-277): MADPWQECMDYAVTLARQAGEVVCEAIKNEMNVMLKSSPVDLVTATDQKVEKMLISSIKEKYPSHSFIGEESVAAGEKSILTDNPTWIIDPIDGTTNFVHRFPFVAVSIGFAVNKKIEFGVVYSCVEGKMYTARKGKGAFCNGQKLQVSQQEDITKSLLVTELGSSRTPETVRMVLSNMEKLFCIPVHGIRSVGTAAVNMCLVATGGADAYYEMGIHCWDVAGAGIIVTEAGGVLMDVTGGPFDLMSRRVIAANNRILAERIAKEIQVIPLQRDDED
Description: Initial rates determined with several substrate concentrations were fitted to a Michaelis-Menten expression by non-linear least-squares regression analysis. […] Bovine brain values are as reported in Gee et al., supra, but confirmed here.
as §1
One unit of enzyme activity represents 1 μmol of substrate hydrolysed/min, at 37° C. Protein concentrations were determined by the method of Bradford [Bradford, M., (1976), Anal. Biochem., 72, pp. 248-252]. Kinetic analyses were performed as described previously [Gee et al., supra].

[3] = target: T3, native bovine brain inositol monophosphatase (Bos taurus, UniProt P20456); details: bovine brain enzyme, as reported in Gee et al., but confirmed here, cited from earlier work
T3 construct: both the native and recombinant bovine enzymes; from tissue; host or cells: bovine brain
T3 sequence (P20456 1-277): T1 sequence (P20456 1-277)

[4] = substrate: O=P(O)(O)O[C@@H]1[C@H](O)[C@H](O)[C@@H](O)[C@H](O)[C@H]1O; assay: purified protein, by the assay type; details: mean ± S.E.M. (n=3)

Which Ki ([1]; read-out: Ki (Pi)) does the source give for `O=P(O)(O)O` [Pi] here?
The Ki was 500 µM.

What about the Ki ([2]; read-out: Ki (Pi), competitive inhibition, recombinant human IMP) of the same molecule?
Its Ki is 140 µM.

What does the source list for `O=P(O)(O)O[C@H]1CC[C@H](O)C[C@H]1O` [1S-phosphoryloxy-2R,4S-dihydroxycyclohexane]?
Ki ([1]; competitive inhibitor, read-out: apparent Ki): 1.1 µM; Ki [2]: 2.7 µM

Which Vmax ([3]; substrate DL-Ins(1)P) does the source give for `O=P(O)(O)O[C@@H]1[C@H](O)[C@H](O)[C@@H](O)[C@H](O)[C@H]1O` (relative stereo) [DL-Ins(1)P] here?
Its Vmax is 13.3 ± 0.9 μmol/min per mg of protein.

What about the Km ([3]; read-out: Km for DL-Ins(1)P) of the same molecule?
Its Km is 160 ± 20 µM.

B1: recombinant bovine inositol monophosphatase (Bos taurus) (protein)
chain: T1 sequence (P20456 1-277)
For B1, which Km ([4]; other: bovine recombinant enzyme, 37.0 °C) is on record?
Its Km is 120 ± 7 µM.

B2: recombinant human brain inositol monophosphatase (IMP), SEQ. ID NO. 2, expressed in E. coli BL21-DE3 (Homo sapiens) (protein)
chain: T2 sequence (P29218 1-277)
With B2 as the molecule, how does the Km ([4]; other: human recombinant enzyme, 37° C.) read?
The Km was 75 ± 3 µM.

B3: native human platelet-derived inositol monophosphatase (Homo sapiens) (protein)
chain: T2 sequence (P29218 1-277)
For B3, which Km ([4]; other: human platelet enzyme, 37.0 °C) is on record?
Its Km is 108 ± 3 µM.

Source: patent publication US5710015A, “cDNA cloning of inositol monophosphatase” (Merck, Sharp & Dohme, Ltd., priority 1992, dated 1998)
